Data on eight molecules can be found in patent publication US12377067B2, “Methods of treating PAH with combinations of ralinepag and other agents” (Arena Pharmaceuticals, Inc., priority 2016, dated 2025).

For orientation: Ki means the dissociation constant of the complex between target and ligand, obtained from inhibition or displacement. A word on the inhibition: it is the relative decrease from the control value, in per cent. Higher therefore signals strong suppression.

The structures appear in SMILES notation.

Assay [1] deals with human PASMCs from PAH patients. As to the kind of experiment: Cell proliferation assay (MTS), serum-induced growth. The assay is classed as cell-based. The note with it: for IP receptor dependence of the effect: cyclic AMP and cell proliferation assays in human PASMCs from PAH patients; for inhibition of serum-induced growth (significance) / inhibition at 0.1 µM: drug alone at 100 nM; for inhibition of serum-induced growth (significance): compared to serum and DMSO alone; for inhibition at 0.1 µM: Homo sapiens, PASMC, 96 h, compared to FBS and DMSO, 4 days. As to the method:
Primary cell lines of distal PASMCs from PAH patients were derived from explanted lungs as previously described (Falcetti et al., 2010; Bubb et al., 2014). These cells have an abnormal proliferative capacity when grown in culture (Zhang et al., 2007; Falcetti et al., 2010). Frozen cells were revived and grown in human smooth muscle basal medium-2 (SMBM; Lonza, Slough, UK) supplemented with 9% fetal bovine serum (FBS) at 37° C. in a humidified atmosphere of 5% CO2. After reaching confluence, cells were washed with phosphate-buffered saline (PBS) and treated with trypsin-EDTA for further passage. Only cells between passages 3 and 10 were used for experiments.
Comparative concentration-dependent effects of IP receptor agonists on cell proliferation were assessed on human PASMCs derived from PAH patients. Cells were seeded onto 96-well plates at a density of 1×10^4 cells/ml and grown at 37° C. in a humidified CO2 incubator in human smooth muscle basal medium-2 (SMBM; Lonza) containing 9% FBS and penicillin-streptomycin (Pen/Strep; 50 units/ml). After 24 hours, cells were growth arrested by incubating for 48 hours in fresh media containing no added serum. Media was then subsequently removed, replaced with human SMBM containing 9% serum with or without 0.1% DMSO in the absence and presence of the IP receptor agonist (either ralinepag, iloprost, treprostinil or MRE-269) and cells treated with the IP receptor agonist for 4 days over the concentration range ([…]). Responses were directly compared in cells containing the IP receptor antagonist, RO-1138452 (1 μM), which was added to cells 30-60 minutes prior to the addition of the IP agonist and remained throughout the experiment. Cells incubated with no added serum over the same time period (4 days) acted as the time control.
Cell proliferation was obtained using an MTS proliferation kit (Promega), a colorimetric method for determining the number of viable cells which is based on the cleavage of the tetrazolium salt MTS to formazan by cellular mitochondrial dehydrogenases. An increase in cell number leads to a proportional increase in the amount of formazan dye formed which is quantified by measuring the absorbance of the dye solution at 490 nm. In each case background absorbance was corrected by subtracting the average absorbance from the “no cell” control wells from all other absorbance values.
Cell proliferation was then normalized to the growth response induced by FBS alone, which was taken as the FBS response minus the time control (=100% growth at 4 days). Growth responses induced in presence of solvent±drugs is shown as % change in cell proliferation relative to the FBS response alone in all figures.
All data are presented as mean±standard error of mean (S.E.M) of at least 5 observations. Agonist log-concentration curves were constructed and fitted using the non-linear fitting routine in GraphPad Prism 4 or 6 (San Diego, Calif., USA). The concentration of agonist causing 50% of the maximal response (Emax) was expressed as the negative log (pEC50) and the mean EC50 calculated. P values <0.05 are considered statistically significant.

A further assay has as its target PDE1. The note with it: cited from earlier work.
Another assay has as its target human IP receptor (Homo sapiens, UniProt P43119). The following applies: cited from earlier work.
Assay [2] concerns human PASMCs from PAH patients. In words: Cyclic AMP assay. It counts as cell-based. The note with it: cyclic AMP assay. As to the method: Human PASMCs from PAH patients were grown to 70-80% confluence in 12 well plates in DMEM/F12 containing 9% foetal bovine serum (FBS), penicillin (50 U/ml)/streptomycin (50 ag/ml). To assess the time-course of cAMP elevation, cells were stimulated with 100 nM ralinepag for varying times (0.5, 1, 2, 4, 8, 24, 48 hours). This dose of ralinepag was chosen on the basis that it was close to the EC50 for cAMP generation in preliminary experiments. In other experiments, the IP receptor agonist was added for a specified time (60 minutes) over a full concentration range (0.1-10,000 nM) in the absence and presence of […] of the IP receptor antagonist, RO-1138452. The antagonist is added 30 minutes beforehand and remained throughout.
To extract cyclic AMP, the medium was aspirated and PASMCs cells incubated in 0.1 M HCl for 20 minutes on ice followed by centrifugation at 1000 g for 10 minutes at 4° C. The protein concentration in the supernatant was determined using a […] protein assay (BCA, Novagen, EmD Chemicals, CA, USA). Intracellular cyclic AMP was measured using a competitive enzyme immunoassay 96 well plate kit (ADI-900-163, Enzo Life Sciences, Exeter, UK) and the assay performed according to the manufacturer's instructions. Each sample was run in duplicate and data expressed as pmol of cAMP per mg of total protein for each individual sample. Basal levels were subtracted from each agonist concentration data point. Given the large variation (˜15-fold) in cAMP generation from different patient samples, data was also normalized to the peak cyclic AMP response (assigned 100%) in each cell isolate.

human IP receptor, sequence (P43119 whole entry): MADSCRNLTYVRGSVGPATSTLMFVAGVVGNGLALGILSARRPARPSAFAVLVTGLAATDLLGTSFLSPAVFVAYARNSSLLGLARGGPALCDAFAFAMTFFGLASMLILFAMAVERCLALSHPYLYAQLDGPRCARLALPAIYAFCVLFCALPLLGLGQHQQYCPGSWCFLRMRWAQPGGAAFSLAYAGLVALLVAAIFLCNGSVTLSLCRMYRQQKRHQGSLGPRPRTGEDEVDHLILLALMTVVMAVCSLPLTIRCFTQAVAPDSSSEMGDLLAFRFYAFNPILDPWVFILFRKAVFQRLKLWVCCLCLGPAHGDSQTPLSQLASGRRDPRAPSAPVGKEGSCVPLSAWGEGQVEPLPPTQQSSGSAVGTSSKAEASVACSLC

For the molecule `CCCCC[C@H](O)CC[C@@H]1[C@H]2Cc3cccc(OCC(=O)O)c3C[C@H]2C[C@H]1O` [treprostinil, reference compound], the “antiproliferative response in the presence of an IP receptor antagonist” value in assay [1] (IP receptor antagonist RO-1138452 (1 μM)) is on record as “only weakly inhibited”. Moreover, in assay [1], the “IP receptor dependence of the effect” value is “IP-independent mechanisms” and the “inhibition of serum-induced growth (significance)” value (“inhibition … (significance)” for short) was “significantly inhibited growth”. Turning to `CCCc1nn(C)c2c(=O)[nH]c(-c3cc(S(=O)(=O)N4CCN(C)CC4)ccc3OCC)nc12` [sildenafil, reference compound], in assay [1], the “inhibition … (significance)” value is reported as “did not significantly inhibit growth”. For the same molecule, at PDE1, the inhibition constant (Ki) is 40 nM. In the case of `COC(=O)N(C)c1c(N)nc(-c2nn(Cc3ccccc3F)c3ncccc23)nc1N` [riociguat, reference compound], the inhibition at 0.1 µM in assay [1] is ~15%. In the case of `CC(C)N(CCCCOCC(=O)NS(C)(=O)=O)c1cnc(-c2ccccc2)c(-c2ccccc2)n1` [selexipag, 2-{4-[(5,6-diphenylpyrazin-2-yl)(propan-2-yl)amino]butoxy}-N-(methanesulfonyl)acetamide], the Ki at human IP receptor is 260 nM. As to `CC#CCC(C)[C@H](O)/C=C/[C@@H]1[C@H]2C/C(=C/CCCC(=O)O)C[C@H]2C[C@H]1O` (some centres unmarked) [iloprost, reference compound], in assay [1], the “IP receptor dependence of the effect” value is reported as “IP-independent mechanisms”. On to `CC(C)N(CCCCOCC(=O)O)c1cnc(-c2ccccc2)c(-c2ccccc2)n1` [MRE-269, [4[(5,6diphenylpyrazinyl)(1methylethyl)amino]butoxy]acetic acid, reference compound], for which the “maximal effect compared with treprostinil” value in assay [1] (cell proliferation assay) and in assay [2] was “weaker maximal effects” each time. In addition, in assay [1], the “IP receptor dependence of the effect” value is “selective IP receptor agonists”. Further, the Ki at human IP receptor is 20 nM. Take `COc1ccccc1Oc1c(NS(=O)(=O)c2ccc(C(C)(C)C)cc2)nc(-c2ncccn2)nc1OCCO` [bosentan, reference compound]: in assay [1], the “inhibition … (significance)” value is on record as “did not cause a significant inhibition”. `CCCNS(=O)(=O)Nc1ncnc(OCCOc2ncc(Br)cn2)c1-c1ccc(Br)cc1` [macitentan, reference compound]: in assay [1], the inhibition at 0.1 µM was ~12%.
